Results reported in patent US20250270648A1, “MOLECULAR SIGNATURE FOR ASSESSING THE RESPONSIVENESS OF CANCER TO MITOCHONDRIA-TARGETED ANTIOXIDANTS” (UNIVERSITÉ CATHOLIQUE DE LOUVAIN, priority 2021, published 2025).

Tests used:
MDA-MB-231 cells [1] = experiment: Intracellular ATP, CellTiter-Glo; assay type: cell-based, human; settings: MitoQ 100 nM, 48 h
Description: Intracellular ATP levels were measured after 48 h of treatment ±MitoQ, using the CellTiter-Glo Luminescent Viability Assay (Promega®) on a Glomax 96 microplate luminometer (Promega®) following manufacturer's instructions. Results were normalized to cell number.

MDA-MB-231 cells [2] = experiment: RT-qPCR of EMT markers; assay type: cell-based, human; settings: MitoQ 500 nM, 48 h
Description: (§1) Total mRNA from MDA-MB-231, SkBr3 and MDA-MB-436 cells treated ±MitoQ for 48 h was extracted using the NucleoSpin RNA Kit (Macherey-Nagel®). Total mRNA from primary tumors was extracted with Tri reagent (Molecular Research Center®, Cat #TR118). mRNAs were quantified by the Qubit BR dsRNA assay kit (Thermo Fisher Scientific®), and mRNA integrity was evaluated on an Agilent® 2100 Bioanalyzer with the RNA 6000 nano kit (Agilent®). It was reverse transcribed in complementary DNA using the High-Capacity cDNA Reverse Transcription Kit (Applied Biosystems®, cat #4368814) according to manufacturer's protocol. Complementary DNA (500 ng) was amplified by real time quantitative PCR (RT-qPCR) using the low ROX SYBR Master Mix dTTP Blue (Eurogentec®) and primers listed in Table 5 and Table 6 on a ViiA 7 Real-Time PCR System (Thermo Fisher Scientific®). Gene expression was normalized to β-actin gene expression.

MDA-MB-436 cells = experiment: RT-qPCR of EMT markers; assay type: cell-based, human; settings: MitoQ 100 nM, 48 h
Description: as §1

SkBr3 cells [3] = experiment: RT-qPCR of EMT markers; assay type: cell-based, human; settings: MitoQ 500 nM, 48 h
Description: as §1

MDA-MB-231 cells [4] = experiment: Clonogenic assay on soft agar; assay type: cell-based, human; settings: MitoQ 250 nM
Description: (§2) For soft agar colony formation assays, 0.4% Seaplaque soft agar (Lonza®) was diluted with DMEM containing 10% FBS and was covered by a second 0.3% soft agar layer in which 500 MDA-MB-231 or SKBR3 cells were embedded. Complete DMEM Culture media ±MitoQ was added with 2× the final concentration. After 20 days, colonies were counted using an Axiovert™ 40 CFL microscope equipped with a MRC camera.

SkBr3 cells [5] = experiment: Clonogenic assay on soft agar; assay type: cell-based, human; settings: MitoQ 250 nM
Description: as §2

MDA-MB-231 cells [6] = experiment: RNA sequencing; assay type: cell-based, human; settings: MitoQ 500 nM, 48 h; |log 2 fold change|>1 and P<0.01
Description: (§3) MDA-MB-231 and SkBr3 cancer cells were treated ±MitoQ for 48 h. Total mRNA was then extracted using the NucleoSpin RNA kit (Macherey-Nagel®), including DNAse treatment in the intermediary steps. mRNAs were quantified using the Qubit BR dsRNA assay kit (Thermo Fisher Scientific®), and mRNA integrity was evaluated on the Agilent 2100 Bioanalyzer using the RNA 6000 nano kit (Agilent®). All samples had RNA integrity number values ≥7.5. Libraries from control and treated samples were prepared starting from 150 ng of total mRNA using the KAPA RNA HyperPrep Kit with RiboErase (HMR) kit (KAPA Biosystems®) following the manufacturer's recommendations (KR1351—v1.16). Libraries were equimolarly pooled and sequenced on a single lane of an Illumina® NovaSeq 6000 platform. All libraries were sequenced at a depth of >50 million paired-end reads (2×100 bp reads) per sample. All sequencing data were analyzed using the Automated Reproducible MOdular workflow for preprocessing and differential analysis of RNAseq data (ARMOR) pipeline. In this pipeline, reads underwent a quality check using FastQC. Quantification and quality control results were summarized in a MultiQC report before being mapped using Salmon to the transcriptome index that was built using all Ensembl cDNA sequences obtained in the Homo_sapiens.GRCh38.cdna.all.fa file. Then, estimated transcript abundances from Salmon were imported into R using the tximeta package, and analyzed for differential gene expression with edgeR. To get a robust signature, only genes with |log 2 Fold Change|>1 and P<0.01 were retained.

SkBr3 cells [7] = experiment: RNA sequencing; assay type: cell-based, human; settings: MitoQ 500 nM, 48 h; |log 2 fold change|>1 and P<0.01
Description: as §3

MMTV-PyMT mice = experiment: Spontaneous metastatic breast cancer, FEC ±MitoQ; assay type: in vivo, mouse; settings: 6 weeks
From the text: Female FVB/N-Tg(MMTV-PyMT)634Mul/J (MMTV-PyMT) mice that express the polyomavirus middle T antigen spontaneously develop orthotropic multifocal breast adenocarcinomas that spontaneously disseminate metastases to the lungs during mouse lifetime. For spontaneous metastasis assays, female MMTV-PyMT mice (The Jackson Laboratory) were daily observed for signs of spontaneous primary tumors starting at 6 weeks of age. Once tumors became palpable, 4 additional weeks were waited to mimic a clinical time frame between first tumor signs and treatment initiation. Ten weeks-old mice with primary tumors of ˜0.8 cm in diameter received a single dose of FEC chemotherapy (100 mg/Kg 5-FU, 5 mg/Kg epirubicin, 100 mg/Kg cyclophosphamide), a clinically relevant neoadjuvant or adjuvant chemotherapeutic combination. Animals were then randomly assigned to a group receiving daily 18 mg/Kg MitoQ or an equal volume of vehicle by oral gavage. They were sacrificed at 16 weeks-old, and the lungs insufflated with Indian ink for metastasis quantification as described above. Primary tumors were collected, weighted, and processed for RT-qPCR.

[8] = tested on: murine 4T1 breast cancer cells; experiment: Cell viability, crystal violet; assay type: cell-based, mouse; settings: increasing doses of cisplatin ±100 nM MitoQ, 48 h
Description: […] The solution was carefully removed and plates were washed twice with water. After drying protected by light, cells were resuspended in 50 μl DMSO and the plates were read with a Victor X4 plate reader (Perkin®).

MCF7 cells = experiment: Migration towards 0.5% serum, chemotaxis chamber; assay type: cell-based, human; settings: 0.1 μg/mL DXR + 100 nM MitoQ
Description: Previous to migration and invasion assays, cells were pretreated with the indicated amounts of drugs for 16 h, and left to recover for 6 h in full culture medium. Migration assays were performed in a NeuroProbe® standard 48-well chemotaxis chamber according to manufacturer's instructions. Briefly, the bottom chamber was filled with DMEM containing 0.5% serum as a chemo-attractant. Fifty thousand cells were seeded in the upper chamber in the same medium but without serum ±MitoQ where indicated, and allowed to migrate overnight through an 8-μm pore-size polycarbonate membrane. A similar stimulation protocol was used for invasion assays, with the difference of using Matrigel-coated transwells (Corning®). With MCF7 cells, membranes were previously incubated for 30 min with a solution of Vitronectin 10 μg/ml (Sigma-Aldrich®, #SRP3186). Migrated/invaded cells were fixed and stained with 100 μl of a 0.23% crystal violet solution (Sigma-Aldrich®, #C0775) for 10 min before counting on a SpectraMax™ i3 spectrophotometer equipped with a MiniMax imaging cytometer, using the SoftMax Pro software. Data were normalized to vehicle-treated cells (control).

COC1=C(OC)C(=O)C(CCCCCCCCCC[P+](c2ccccc2)(c2ccccc2)c2ccccc2)=C(C)C1=O [MitoQ] was tested, and the ATP production (MDA-MB-231 cells [1]) was “overall decrease”, the SLUG/SNAI2 transcription (MDA-MB-231 cells [2]) was “not significantly altered” and the “mRNA expression of EMT markers vimentin (VIM), SNAIL (SNAI1), ZEB1 and TWIST1” value (MDA-MB-231 cells [2]) was “decreased”. For the same molecule, the “mRNA expression of EMT markers VIM (vimentin), SNAI1, SNAI2 and TWIST1” value (MDA-MB-436 cells) was “downregulated”, the “mRNA expression of all analyzed EMT inducers” value (SkBr3 cells [3]) was “repressed” and the “clonogenicity in suspension on soft agar” value (MDA-MB-231 cells [4]) was “completely abrogated”. For the same molecule, the “clonogenicity in suspension on soft agar” value (SkBr3 cells [5]) was “completely abrogated”, the “number of downregulated transcripts” value (MDA-MB-231 cells [6]) was 1,943 and the “number of upregulated transcripts” value (MDA-MB-231 cells [6]) was 2,153. The “number of downregulated transcripts” value (SkBr3 cells [7]) was 5, the “number of upregulated transcripts” value (SkBr3 cells [7]) was 20 and the “number of surface lung metastases” value (MMTV-PyMT mice; FEC + MitoQ 18 mg/kg daily oral vs FEC + vehicle) was “significantly repressed”. For the same molecule, the “total primary tumor weight” value (MMTV-PyMT mice; FEC + MitoQ 18 mg/kg daily oral vs FEC + vehicle, P=0.1395) was “not altered”, the mice metastasis-free (MMTV-PyMT mice; FEC + MitoQ 18 mg/kg daily oral, all 15 FEC+ control mice had metastases) was 4 of 21 and the “cancer cell killing activity, cisplatin combined with MitoQ” value [8] was “did not interfere”. The DXR-stimulated cell migration (MCF7 cells) was “inhibited”.
